A short description of the data set: Color stability of ODPA after heat treatment (220 to 225° C., about 8 hours). It is filed as physicochemical. The note with it: 220 to 225° C. for about 8 hours, visual observation. On the procedure:
The color stability of the ODPA after subjecting the ODPA to heat treatment was also examined. The heat stability testing was performed on various ODPA samples as described in Table 7. The samples were tested using a 10 wt % solution of each sample in DMF and APHA values were recorded using a Macbeth colorimeter Each sample was heat-treated by exposing the sample to a temperature of 220 to 225° C. for about 8 hours. The samples were monitored for color changes during the heat exposure duration. Visual observations are recorded in Table 7, as well as the measured APHA color values.

Each structure is given as a SMILES string. Entries after “also recorded” stand apart in the source; their conditions may differ.

Take `O=C1OC(=O)c2cc(Oc3ccc4c(c3)C(=O)OC4=O)ccc21` [Example 74, reference compound]: the “Qualitative color observations after exposure to heat” value is “no detectable color change; also recorded: No change observed”.

Source of the values: patent US10752603B2, “Purification of oxydiphthalic anhydrides” (SABIC Global Technologies, B.V., priority 2018, dated 2020).
